In patent EP3388419A1, “GLI1 INHIBITORS AND USES THEREOF” (Leadiant Biosciences SA, priority 2017, dated 2018):
Entries after “also recorded” stand apart in the source; their conditions may differ. Like-named read-outs stand apart in the source and are kept apart here.

Experiments:
[1] = system: Gli1 protein; test: Effect on Gli1 protein expression by Western blotting in SAG-stimulated NIH3T3 cells; format: cell-based, murine; design: key to Effect on Gli1 protein: +++: Gli1 protein level strongly reduced (almost abolished) at 24 and 48 h compared to DMSO control; ++: Gli1 protein level reduced (more than 50%) at 48 h compared to DMSO control; +: Gli1 protein level is weakly reduced (about 50%) at 48 h compared to DMSO control; conditions: compound 1 µM; for Effect on Gli1 protein: NIH3T3 cells stimulated with SAG (100nM), 24 or 48 h, compared to DMSO control; for Gli1 protein level: Figure 1, NIH3T3 cells, 48 h, reference GANT61 5 µM, result in words
Procedure: The effect of compounds on Gli1 protein expression was evaluated in HH-responsive murine NIH3T3 cells by Western blotting. Both Gli1 and Ptch1 are targets of the Gli, and Gli1 in particular is considered the best read-out of HH signaling activity.
Briefly, NIH3T3 were stimulated for 48 h with 3-chloro-N-[trans-4-(methylamino)cyclohexyl]-N-[[3-(4-pyridinyl)phenyl]methyl]-benzo[b]thiophene-2-carboxamide (SAG) (100nM) to activate the endogenous HH pathway, and treated for 24 or 48 h with each compound (1 µM). NIH3T3 cells were lysed and subjected to Western blotting using a specific anti-GLI1 antibody. The effect of each compound was compared to that of GANT61 (5 µM), a well known Gli1/2 inhibitor (Lauth M. et al. PNAS 2007, 104, 8455).

[2] = system: A375 (metastatic melanoma cell line); test: Cancer cell proliferation, MTT-based assay, A375; conditions: Homo sapiens, A-375, A375, 72 h
Procedure: (§1) The effects on cancer cell proliferation were tested for those compounds shown to be able to reduce Gli1 protein level in NIH3T3 cells. Two different commercial cancer cell lines were used: A375 (metastatic melanoma cell line) and DAOY (medulloblastoma cell line).
(§2) To test the effects on cancer cell proliferation, both cell types were treated for 72 h with increasing doses (10 nM, 50 nM, 100 nM, 250 nM, 500 nM, 1 µM, 5 µM) of each compound and counted at the end of the treatment with an MTT-based assay. IC50 was calculated by GraphPad Prism software.

[3] = system: DAOY (medulloblastoma cell line); test: Cancer cell proliferation, MTT-based assay, DAOY; conditions: Homo sapiens, 72 h
Procedure: as §1, §2

[4] = Table 3, commercially available compounds
[5] = Table 3, commercially available compounds, read-out: Effect on proliferation A375 (IC50; nM)
[6] = Table 3, commercially available compounds, read-out: Effect on proliferation DAOY (IC50; nM)
[7] = Table 2, new compounds, read-out: Effect on proliferation A375 (IC50; nM)
[8] = Table 2, new compounds, read-out: Effect on proliferation DAOY (IC50; nM)
[9] = Figure 2 dose-response curve, read-out: IC50

IC50 [2, 5]	IC50 [3, 6]	IC50 [2, 7]	IC50 [3, 8]	IC50 [2, 9]	IC50 [3, 9]	Structure (SMILES)	Effect on Gli1 protein [1, 4]	Gli1 protein level [1]	Effect on Gli1 protein ([1]; Table 2, new compounds)
300 to 1000 nM	300 to 1000 nM	–	–	–	–	COc1ccc(C(NC(C)=O)c2cc(Cl)c3cccnc3c2O)cc1OC (stereo not shown) [SST0687AA1, N-[(5-Chloro-8-hydroxy-quinolin-7-yl)-(3,4-dimethoxy-phenyl)-methyl]-acetamide]	+++	–	–
300 to 1000 nM	300 to 1000 nM	–	–	–	–	CCCC(=O)NC(c1ccc(Cl)cc1Cl)c1cc(Cl)c2cccnc2c1O (stereo not shown) [SST0689AA1, N-[(5-Chloro-8-hydroxy-quinolin-7-yl)-(2,4-dichlorophenyl)-methyl]-butyramide]	+++	–	–
300 to 1000 nM	300 to 1000 nM	–	–	–	–	COc1ccc(C(NC(=O)C(C)C)c2cc(Cl)c3cccnc3c2O)cc1OC (stereo not shown) [SST0769AA1, Propanamide, N-[(5-chloro-8-hydroxy-7-quinolinyl)(3,4-dimethoxyphenyl)methyl]-2-methyl-]	++ (Gli1 protein level reduced (more than 50%) at 48 h compared to DMSO control)	–	–
300 to 1000 nM	300 to 1000 nM	–	–	–	–	CCCC(=O)NC(c1ccc(N(CC)CC)cc1)c1cc(Cl)c2cccnc2c1O (stereo not shown) [SST0771AA1, Butanamide, N-[(5-chloro-8-hydroxy-7-quinolinyl)[4-(diethylamino)phenyl]methyl]-]	+++	–	–
300 to 1000 nM	300 to 1000 nM	–	–	–	–	CCCC(=O)NC(c1ccc(C)cc1)c1cc(Cl)c2cccnc2c1O (stereo not shown) [SST0773AA1, Butanamide, N-[(5-chloro-8-hydroxy-7-quinolinyl)(4-methylphenyl)methyl]-]	+	–	–
≤ 300 nM	≤ 300 nM	–	–	–	–	CCCCC(=O)NC(c1ccc(C(C)C)cc1)c1cc(Cl)c2cccnc2c1O (stereo not shown) [SST0774AA1, Pentanamide, N-[(5-chloro-8-hydroxy-7-quinolinyl)[4-(1-methylethyl)phenyl]methyl]-]	+++	–	–
300 to 1000 nM	300 to 1000 nM	–	–	–	–	CCCC(=O)NC(c1ccccc1Cl)c1cc(Cl)c2cccnc2c1O (stereo not shown) [SST0775AA1, Butanamide, N-[(5-chloro-8-hydroxy-7-quinolinyl)(2-chlorophenyl)methyl]-]	+	–	–
≤ 300 nM	≤ 300 nM	–	–	–	–	CCCC(=O)NC(c1ccc(Cl)cc1Cl)c1ccc2cccnc2c1O (stereo not shown) [SST0776AA1, Butanamide, N-[(2,4-dichlorophenyl)(8-hydroxy-7-quinolinyl)methyl]-]	+++	–	–
300 to 1000 nM	300 to 1000 nM	–	–	–	–	CCCCC(=O)NC(c1ccc(OC)c(OC)c1)c1ccc2cccnc2c1O (stereo not shown) [SST0777AA1, Pentanamide, N-[(3,4-dimethoxyphenyl)(8-hydroxy-7-quinolinyl)methyl]]	+++	–	–
≤ 300 nM	≤ 300 nM	–	–	–	–	Clc1cc2c(c3ncccc13)OCN(CCC1=CCCCC1)C2 [SST0791AA1, 2H-Pyrido[3,2-h]-1,3-benzoxazine, 6-chloro-3-[2-(1-cyclohexen-1-yl)ethyl]-3,4-dihydro-]	++ (Gli1 protein level reduced (more than 50%) at 48 h compared to DMSO control)	–	–
≤ 300 nM	≥ 1000 nM	–	–	–	–	Clc1cc2c(c3ncccc13)OCN(CCCN1CCOCC1)C2 [SST0792AA1, 2H-Pyrido[3,2-h]-1,3-benzoxazine, 6-chloro-3,4-dihydro-3-[3-(4-morpholinyl)propyl]-]	+	–	–
300 to 1000 nM	300 to 1000 nM	–	–	–	–	CCCCN1COc2c(cc(Cl)c3cccnc23)C1 [SST0793AA1, 2H-Pyrido[3,2-h]-1,3-benzoxazine, 3-butyl-6-chloro-3,4-dihydro-]	++ (Gli1 protein level reduced (more than 50%) at 48 h compared to DMSO control)	–	–
≤ 300 nM	≤ 300 nM	–	–	–	–	Clc1cc2c(c3ncccc13)OCN(CCc1ccccc1)C2 [SST0794AA1, 2H-Pyrido[3,2-h]-1,3-benzoxazine, 6-chloro-3,4-dihydro-3-(2-phenylethyl)-]	++ (Gli1 protein level reduced (more than 50%) at 48 h compared to DMSO control)	–	–
–	–	≤ 300 nM	≤ 300 nM	–	–	c1ccc(CCN2COc3c(ccc4cccnc34)C2)cc1 [SST0823AA1, 3-phenethyl-3,4-dihydro-2H-[1,3]oxazino[5,6-h]quinoline]	–	drastic reduction of Gli1 protein level; also recorded: abolish Gli1 protein level	+++
–	–	–	–	–	–	O=C1Oc2c(ccc3cccnc23)C(c2ccc(Cl)cc2Cl)N1CCc1ccccc1 (stereo not shown) [SST0826AA1, 4-(2,4-dichlorophenyl)-3-phenethyl-3,4-dihydro-2H-[1,3]oxazino[5,6-h]quinolin-2-one]	–	slight reduction in Gli1 protein level	–
–	–	≤ 300 nM	≤ 300 nM	–	–	Oc1c(C(NCCc2ccccc2)c2ccc(Cl)cc2Cl)ccc2cccnc12 (stereo not shown) [SST0827AA1, 7-((2,4-dichlorophenyl)(phenethylamino)methyl)quinolin-8-ol]	–	drastic reduction of Gli1 protein level; also recorded: abolish Gli1 protein level	+++
–	–	≥ 1000 nM	≥ 1000 nM	–	–	Fc1cnc2c3c(ccc2c1)CN(CCc1ccccc1)CO3 [SST0891AA1, 8-fluoro-3-phenethyl-3,4-dihydro-2H-[1,3]oxazino[5,6-h]quinoline]	–	comparable to that obtained with GANT61	+
–	–	≤ 300 nM	300 to 1000 nM	300 nM	500 nM	c1cnc2c3c(ccc2c1)CN(C1CCCCC1)CO3 [SST0892AA1, 3-cyclohexyl-3,4-dihydro-2H-[1,3]oxazino[5,6-h]quinoline]	–	drastic reduction of Gli1 protein level; also recorded: abolish Gli1 protein level	+++
–	–	300 to 1000 nM	300 to 1000 nM	–	–	c1ccc2c(c1)CCC(N1COc3c(ccc4cccnc34)C1)C2 (stereo not shown) [SST0893AA1, 3-(1,2,3,4-tetrahydronaphthalen-2-yl)-3,4-dihydro-2H-[1,3]oxazino[5,6-h]quinoline]	–	–	+
–	–	300 to 1000 nM	300 to 1000 nM	–	–	COc1ccc(CN2COc3c(ccc4cccnc34)C2)cc1 [SST0910AA1, 3-(4-methoxybenzyl)-3,4-dihydro-2H-[1,3]oxazino[5,6-h]quinoline]	–	–	+
–	–	300 to 1000 nM	≥ 1000 nM	–	–	c1cnc2c3c(ccc2c1)CN(CC1CCCCC1)CO3 [SST0912AA1, 3-(cyclohexylmethyl)-3,4-dihydro-2H-[1,3]oxazino[5,6-h]quinoline]	–	–	+
–	–	300 to 1000 nM	≥ 1000 nM	–	–	c1cnc2c3c(ccc2c1)CN(C1CCCCCC1)CO3 [SST0913AA1, 3-cycloheptyl-3,4-dihydro-2H-[1,3]oxazino[5,6-h]quinoline]	–	–	+
